Results published in patent US11162959B2, “Time-resolved fluorescent immunochromatographic test strip for detecting vancomycin as well as preparation method and application thereof” (BEIJING DIAGREAT BIOTECHNOLOGIES CO., LTD., priority 2019, dated 2021).

tested on: vancomycin monoclonal antibody; test: Cross-reaction rate measurement of the test strip of Embodiment 1 (interference testing in human serum containing 20 μg/mL vancomycin); type: binding, Balb/c mouse; settings: test concentration 20 μg/mL; human serum sample
Method: 20 ul of sample is accurately pipetted into 180 ul of sample diluent and mixed fully.
80 uL of sample solution to be tested is accurately pipetted into a test strip loading well with a micropipette, and reaction is carried out at 20° C. for 15 min. The test strip is inserted into a load carrier of a fluorescence detector, an item to be tested is selected by touching a display screen, a “Detection Start” button is pressed, the fluorescence detector automatically scans the test strip, and a test result is read through the display screen of an instrument or printed.
After the test is completed, the instrument obtains the ratio of the time-resolved fluorescent intensity of the detection area on the test strip to the time-resolved fluorescent intensity of the quality control area, and calculates the content of vancomycin in the sample to be tested according to the following formula. Y=(A−D)/[1+(x/C)^B]+D
Several vancomycin analogs and common drugs are selected for interference testing.

SMILES | Cross reaction rate [%]
CN[C@H](CC(C)C)C(=O)N[C@H]1C(=O)N[C@@H](CC(N)=O)C(=O)N[C@H]2C(=O)N[C@H]3C(=O)N[C@H](C(=O)N[C@H](C(=O)O)c4cc(O)cc(O)c4-c4cc3ccc4O)[C@H](O)c3ccc(c(Cl)c3)Oc3cc2cc(c3O[C@@H]2OC(CO)[C@@H](O)[C@H](O)[C@H]2O[C@H]2C[C@](C)(N)[C@H](O)[C@H](C)O2)Oc2ccc(cc2Cl)[C@H]1O.Cl (stereo partly drawn) [Vancomycin] | 100

same assay, conditions: test concentration 100 μg/mL; added to human serum with vancomycin 20 μg/mL

SMILES | Cross reaction rate [%]
CC(C)C[C@@H](N)C(=O)N[C@H]1C(=O)N[C@@H](CC(N)=O)C(=O)N[C@H]2C(=O)N[C@H]3C(=O)N[C@H](C(=O)N[C@H](C(=O)O)c4cc(O)cc(O)c4-c4cc3ccc4O)[C@H](O)c3ccc(c(Cl)c3)Oc3cc2cc(c3O[C@@H]2O[C@H](CO)[C@@H](O)[C@H](O)[C@H]2O[C@H]2C[C@](C)(N)[C@H](O)[C@H](C)O2)Oc2ccc(cc2Cl)[C@H]1O [Norvancomycin] | <1

same assay, conditions: test concentration 1,000 μg/mL; added to human serum with vancomycin 20 μg/mL

SMILES | Cross reaction rate [%]
CC(=O)Oc1ccccc1C(=O)O [Aspirin] | <0.001
NC(=O)N1c2ccccc2C=Cc2ccccc21 [Carbamazepine] | <0.001
C[C@H]1O[C@@H](O[C@H]2[C@@H](O)C[C@H](O[C@H]3[C@@H](O)C[C@H](O[C@H]4CC[C@@]5(C)[C@H](CC[C@@H]6[C@@H]5C[C@@H](O)[C@]5(C)[C@@H](C7=CC(=O)OC7)CC[C@]65O)C4)O[C@@H]3C)O[C@@H]2C)C[C@H](O)[C@@H]1O [Digoxin] | <0.001
O=C1NC(=O)C(c2ccccc2)(c2ccccc2)N1 [Phenytoin] | <0.001
O=C(O)c1ccccc1O [Salicylic acid] | <0.001
Cn1c(=O)c2[nH]cnc2n(C)c1=O [Theophylline] | <0.001
CCCC(CCC)C(=O)O [Valproic acid] | <0.001
